Data taken from patent US3986862A, “Emulsifiable liquid concentrates containing 4-amino-6-t-butyl-3-(methylthio)-1,2,4-triazin-5-one and 2-chloro-N-(2,6-diethylphenyl)-N-methoxymethylacetamide” (E. I. Du Pont de Nemours and Company, priority 1974, dated 1976).

Format: physicochemical
Method: The unexpected solvent synergism between alachlor, metribuzin and chlorobenzene is illustrated in the Table below. […] When metribuzin is the only material in chlorobenzene only 4% can be held in solution at -6° C. This is equivalent to about 0.35 lbs. metrubuzin/gallon. Solutions more concentrated than that could not be stored at the commercially important warehousing conditions at or near the conventional freezing temperatures (32° F. or 0° C.). […] These concentrations represent 0.8 lbs. of metribuzin and 3.2 lbs. of alachlor per gallon.
SOLUBILITY OF METRIBUZIN AT LOW TEMPERATURES IN
LASSO* AND/OR CHLOROBENZENE

[1] = metribuzin the only material in chlorobenzene, at -6° C.

Compound: CSc1nnc(C(C)(C)C)c(=O)n1N [Metribuzin, 4-amino-6-t-butyl-3-(methylthio)-1,2,4-triazin-5-one]
- Incipient Crystallization Temperature (4% metribuzin, 0% alachlor, solvent chlorobenzene): -6 °C
- amount of metribuzin that can be held in solution [1]: 4%
- amount of metribuzin that can be held in solution, equivalent [1]: about 0.35 lbs. metrubuzin/gallon
